Assay results reported in PubChem BioAssay AID248 (DTP/NCI, 2004).
Values joined by “and” are separate entries in the source; they are usually repeats but may differ in a detail not shown here. Identical values can stand only once. Toxic doses and inconclusive results are not listed. Rule as the data show it: active = T/C of 150% or more; inactive = T/C below 125%.

Test system: L1210 leukemia ip in BDF1 mice, survival T/C
Assay: NCI In Vivo Anticancer Drug Screen. Data for tumor model L1210 Leukemia (intraperitoneal) in B6D2F1 (BDF1) mice
Details: higher = longer survival
Outline: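 Antitumor effect is assessed in tumor-bearing animals. Survival in the compound arm is compared with a vehicle-dosed control arm and expressed as their quotient.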

Measured: T/C

O=C1OC(C(O)CO)C(O)=C1O (configuration not stated)
inactive: endpoint: mean survival time, dose: 0.05 mg/kg/injection, schedule: Q01DX005 (iv), vehicle: saline 98 % of control | endpoint: mean survival time, dose: 0.05 mg/kg/injection, schedule: Q01DX009 (oral), vehicle: saline 102 % of control | endpoint: mean survival time, dose: 0.1 mg/kg/injection, schedule: Q01DX005 (iv), vehicle: saline 97 % of control | endpoint: mean survival time, dose: 0.1 mg/kg/injection, schedule: Q01DX009 (ip), vehicle: saline 95 % of control | endpoint: mean survival time, dose: 0.1 mg/kg/injection, schedule: Q01DX009 (oral), vehicle: saline 98 % of control | endpoint: mean survival time, dose: 0.1 mg/kg/injection, schedule: Q01DX009 (sc), vehicle: saline 98 % of control | endpoint: mean survival time, dose: 0.12 mg/kg/injection, schedule: Q01DX009 (ip), vehicle: saline 100 % of control | endpoint: mean survival time, dose: 0.13 mg/kg/injection, schedule: Q01DX009 (ip), vehicle: saline 100 % of control | endpoint: mean survival time, dose: 0.2 mg/kg/injection, schedule: Q01DX005 (iv), vehicle: saline 102 % of control | endpoint: mean survival time, dose: 0.2 mg/kg/injection, schedule: Q01DX009 (im), vehicle: saline 98 % of control | endpoint: mean survival time, dose: 0.2 mg/kg/injection, schedule: Q01DX009 (ip), vehicle: saline 101 % of control | endpoint: mean survival time, dose: 0.39 mg/kg/injection, schedule: Q01DX005 (iv), vehicle: saline 95 % of control | endpoint: mean survival time, dose: 0.39 mg/kg/injection, schedule: Q01DX009 (im), vehicle: saline 95 % of control | endpoint: mean survival time, dose: 0.39 mg/kg/injection, schedule: Q01DX009 (ip), vehicle: saline 95 % of control | endpoint: mean survival time, dose: 0.39 mg/kg/injection, schedule: Q01DX009 (oral), vehicle: saline 98 % of control | endpoint: mean survival time, dose: 0.5 mg/kg/injection, schedule: Q01DX001 (ip), vehicle: saline 97 % of control | endpoint: mean survival time, dose: 0.5 mg/kg/injection, schedule: Q01DX009 (ip), vehicle: saline 96 % of control and 101 % of control | endpoint: mean survival time, dose: 0.78 mg/kg/injection, schedule: Q01DX005 (iv), vehicle: saline 98 % of control | endpoint: mean survival time, dose: 0.78 mg/kg/injection, schedule: Q01DX009 (im), vehicle: saline 93 % of control | endpoint: mean survival time, dose: 0.78 mg/kg/injection, schedule: Q01DX009 (ip), vehicle: saline 102 % of control | endpoint: mean survival time, dose: 0.78 mg/kg/injection, schedule: Q01DX009 (oral), vehicle: saline 99 % of control | endpoint: mean survival time, dose: 1.0 mg/kg/injection, schedule: Q01DX001 (ip), vehicle: saline 100 % of control and 101 % of control | endpoint: mean survival time, dose: 1.0 mg/kg/injection, schedule: Q01DX009 (ip), vehicle: saline 95 % of control and 101 % of control | endpoint: mean survival time, dose: 1.56 mg/kg/injection, schedule: Q01DX005 (iv), vehicle: saline 98 % of control | endpoint: mean survival time, dose: 1.56 mg/kg/injection, schedule: Q01DX009 (im), vehicle: saline 100 % of control | endpoint: mean survival time, dose: 1.56 mg/kg/injection, schedule: Q01DX009 (ip), vehicle: saline 93 % of control | endpoint: mean survival time, dose: 1.56 mg/kg/injection, schedule: Q01DX009 (oral), vehicle: saline 94 % of control | endpoint: mean survival time, dose: 2.0 mg/kg/injection, schedule: Q01DX001 (ip), vehicle: saline 101 % of control and 103 % of control | endpoint: mean survival time, dose: 2.0 mg/kg/injection, schedule: Q01DX009 (ip), vehicle: saline 95 % of control and 97 % of control | endpoint: mean survival time, dose: 3.12 mg/kg/injection, schedule: Q01DX005 (iv), vehicle: saline 95 % of control | endpoint: mean survival time, dose: 3.12 mg/kg/injection, schedule: Q01DX009 (im), vehicle: saline 95 % of control | endpoint: mean survival time, dose: 3.12 mg/kg/injection, schedule: Q01DX009 (oral), vehicle: saline 93 % of control | endpoint: mean survival time, dose: 3.12 mg/kg/injection, schedule: Q01DX009 (sc), vehicle: saline 96 % of control | endpoint: mean survival time, dose: 4.0 mg/kg/injection, schedule: Q01DX001 (ip), vehicle: saline 101 % of control and 104 % of control | endpoint: mean survival time, dose: 4.0 mg/kg/injection, schedule: Q01DX009 (ip), vehicle: saline 94 % of control and 101 % of control | endpoint: mean survival time, dose: 6.25 mg/kg/injection, schedule: Q01DX009 (im), vehicle: saline 98 % of control | endpoint: mean survival time, dose: 6.25 mg/kg/injection, schedule: Q01DX009 (ip), vehicle: saline 95 % of control | endpoint: mean survival time, dose: 6.25 mg/kg/injection, schedule: Q01DX009 (oral), vehicle: saline 98 % of control | endpoint: mean survival time, dose: 6.25 mg/kg/injection, schedule: Q01DX009 (sc), vehicle: saline 102 % of control | endpoint: mean survival time, dose: 8.0 mg/kg/injection, schedule: Q01DX001 (ip), vehicle: saline 100 % of control | endpoint: mean survival time, dose: 8.0 mg/kg/injection, schedule: Q01DX009 (ip), vehicle: saline 95 % of control and 97 % of control | endpoint: mean survival time, dose: 12.5 mg/kg/injection, schedule: Q01DX009 (im), vehicle: saline 100 % of control | endpoint: mean survival time, dose: 12.5 mg/kg/injection, schedule: Q01DX009 (ip), vehicle: saline 102 % of control | endpoint: mean survival time, dose: 12.5 mg/kg/injection, schedule: Q01DX009 (oral), vehicle: saline 100 % of control | endpoint: mean survival time, dose: 12.5 mg/kg/injection, schedule: Q01DX009 (sc), vehicle: saline 94 % of control | endpoint: mean survival time, dose: 16.0 mg/kg/injection, schedule: Q01DX001 (ip), vehicle: saline 94 % of control | endpoint: mean survival time, dose: 16.0 mg/kg/injection, schedule: Q01DX009 (ip), vehicle: saline 101 % of control | endpoint: mean survival time, dose: 25.0 mg/kg/injection, schedule: Q01DX009 (ip), vehicle: saline 95 % of control | endpoint: mean survival time, dose: 25.0 mg/kg/injection, schedule: Q01DX009 (sc), vehicle: saline 102 % of control | endpoint: mean survival time, dose: 32.0 mg/kg/injection, schedule: Q01DX001 (ip), vehicle: saline 97 % of control | endpoint: mean survival time, dose: 32.0 mg/kg/injection, schedule: Q01DX009 (ip), vehicle: saline 103 % of control | endpoint: mean survival time, dose: 37.5 mg/kg/injection, schedule: Q01DX009 (ip), vehicle: saline 98 % of control | endpoint: mean survival time, dose: 50.0 mg/kg/injection, schedule: Q01DX005 (iv), vehicle: saline 102 % of control | endpoint: mean survival time, dose: 50.0 mg/kg/injection, schedule: Q01DX009 (im), vehicle: saline 96 % of control | endpoint: mean survival time, dose: 50.0 mg/kg/injection, schedule: Q01DX009 (ip), vehicle: saline 96 % of control | endpoint: mean survival time, dose: 50.0 mg/kg/injection, schedule: Q01DX009 (oral), vehicle: saline 100 % of control | endpoint: mean survival time, dose: 64.0 mg/kg/injection, schedule: Q01DX001 (ip), vehicle: saline 97 % of control and 101 % of control | endpoint: mean survival time, dose: 100.0 mg/kg/injection, schedule: Q01DX001 (ip), vehicle: saline 96 % of control | endpoint: mean survival time, dose: 100.0 mg/kg/injection, schedule: Q01DX005 (iv), vehicle: saline 97 % of control | endpoint: mean survival time, dose: 100.0 mg/kg/injection, schedule: Q01DX009 (im), vehicle: saline 96 % of control | endpoint: mean survival time, dose: 100.0 mg/kg/injection, schedule: Q01DX009 (ip), vehicle: saline 93 % of control and 98 % of control | endpoint: mean survival time, dose: 100.0 mg/kg/injection, schedule: Q01DX009 (oral), vehicle: saline 103 % of control | endpoint: mean survival time, dose: 100.0 mg/kg/injection, schedule: Q04DX003 (ip), vehicle: saline 96 % of control | endpoint: mean survival time, dose: 150.0 mg/kg/injection, schedule: Q03HX024 (ip), vehicle: saline 93 % of control | endpoint: mean survival time, dose: 200.0 mg/kg/injection, schedule: Q01DX001 (ip), vehicle: saline 104 % of control | endpoint: mean survival time, dose: 200.0 mg/kg/injection, schedule: Q01DX005 (iv), vehicle: saline 102 % of control | endpoint: mean survival time, dose: 200.0 mg/kg/injection, schedule: Q01DX009 (im), vehicle: saline 98 % of control | endpoint: mean survival time, dose: 200.0 mg/kg/injection, schedule: Q01DX009 (ip), vehicle: saline 101 % of control | endpoint: mean survival time, dose: 200.0 mg/kg/injection, schedule: Q01DX009 (oral), vehicle: saline 96 % of control | endpoint: mean survival time, dose: 300.0 mg/kg/injection, schedule: Q01DX009 (ip), vehicle: saline 97 % of control | endpoint: mean survival time, dose: 400.0 mg/kg/injection, schedule: Q01DX001 (ip), vehicle: saline 93 % of control | endpoint: mean survival time, dose: 400.0 mg/kg/injection, schedule: Q01DX005 (iv), vehicle: saline 101 % of control | endpoint: mean survival time, dose: 400.0 mg/kg/injection, schedule: Q01DX009 (im), vehicle: saline 102 % of control | endpoint: mean survival time, dose: 400.0 mg/kg/injection, schedule: Q01DX009 (ip), vehicle: saline 93 % of control and 95 % of control and 102 % of control | endpoint: mean survival time, dose: 400.0 mg/kg/injection, schedule: Q01DX009 (oral), vehicle: saline 98 % of control | endpoint: mean survival time, dose: 800.0 mg/kg/injection, schedule: Q01DX001 (ip), vehicle: saline 94 % of control | endpoint: mean survival time, dose: 800.0 mg/kg/injection, schedule: Q01DX005 (iv), vehicle: saline 98 % of control | endpoint: mean survival time, dose: 800.0 mg/kg/injection, schedule: Q01DX009 (im), vehicle: saline 93 % of control | endpoint: mean survival time, dose: 800.0 mg/kg/injection, schedule: Q01DX009 (oral), vehicle: saline 94 % of control | endpoint: mean survival time, dose: 1200.0 mg/kg/injection, schedule: Q01DX001 (ip), vehicle: saline 100 % of control | endpoint: mean survival time, dose: 1600.0 mg/kg/injection, schedule: Q01DX001 (ip), vehicle: saline 100 % of control | endpoint: mean survival time, dose: 1600.0 mg/kg/injection, schedule: Q01DX009 (im), vehicle: saline 98 % of control | endpoint: mean survival time, dose: 1600.0 mg/kg/injection, schedule: Q01DX009 (oral), vehicle: saline 96 % of control | endpoint: median survival time, dose: 500.0 mg/kg/injection, schedule: Q01DX001 (oral), vehicle: water 100 % of control | endpoint: median survival time, dose: 1000.0 mg/kg/injection, schedule: Q01DX001 (oral), vehicle: water 100 % of control | endpoint: median survival time, dose: 1500.0 mg/kg/injection, schedule: Q01DX001 (oral), vehicle: water 94 % of control | endpoint: median survival time, dose: 3000.0 mg/kg/injection, schedule: Q01DX001 (oral), vehicle: water 100 % of control
